The source of these data is patent US20160177324A1, “NOVEL PROTEIN AND GENE RELATED TO FLAVONOID O-METHYLTRANSFERASE (FOMT) AND THEIR USES THEREFORE” (INSTITUTE OF BOTANY, THE CHINESE ACADEMY OF SCIENCES, priority 2013, published 2016).

Assay [1] concerns PsFOMT. As to the kind of experiment: In vitro enzyme assay and kinetics of recombinant PsFOMT with flavonoid substrates. Also on record: key to Vmax / Kcat × 10 / Kcat/Km / Specific Activity: —: no product detected. Format: biochemical, Paeonia suffruticosa cv. 'Gunpohden'. The settings on record: for Kcat × 10 / Kcat/Km / Specific Activity / Vmax: purified recombinant PsFOMT, 200 μM SAM, 1 mM MgCl2, pH 7.5, 35° C., means (SE) of triplicate assays; for catalytical efficiency of PsFOMT fusion protein for substrate / methylation of substrate by PsFOMT: in the presence of SAM. The text has this: Full length FOMTs were amplified by primers SEQ No.7 & 8 in which restriction enzyme NdeI and BamHI site were introduced to the 5'-end and 3'-end, respectively. The DNA fragment of interest was ligated into the […]3 vector, and then the recombinant plasmid was transducted into DH5a. The FOMT cDNAs were sequenced to verify that no mutation occurred. The recombinant plasmid was isolated and digested with Ndel and BamHI. Subsequently, the fragment was ligated to the NdeI and BamHI excised expression vector pMAL-[…] with a MBP tag to yield pMAL-PsFOMT and pMAL-PtFOMT (FIG. 3). The correct construction tested by sequencing was introduced into E. coli strain BL21. E. coli harboring pMAL-PsFOMT and pMAL-PtFOMT were cultivated in 2 mL LB liquid medium containing glucose, supplemented by 100 μg/mL ampicillin until OD600 reached 0.4-0.5. After addition of isopropyl β-D-thiogalactopyranoside (IPTG) to a final concentration of 0.1 mM, the cells were further cultured at 16° C. for 20 h. Harvest the cells by centrifugation and discard the supernatant. The cells were resuspended in column buffer (20 mM Tris-HCl, 200 mM NaCl 1 mM EDTA, 10 mM β-mercaptoethanol, pH 7.4), and disrupted by sonication in an ice-water bath (Lan, T., et al., Extensive functional diversification of the Populus glutathione S-transferase supergene family. Plant Cell, 2009. 21(12): p. 3749-3766.). In each case, the homogenate was then subjected to centrifugation at 10,000 g for 10 min at 4° C. The resultant particulate material and a small portion of the supernatant were analyzed by SDS-PAGE. The rest of the supernatant was loaded onto an amylose resin column (NEB) that had been pre-equilibrated with column buffer. The overexpressed fusion protein bound to the column was eluted with column buffer plus 10 mM maltose. The concentration of purified fusion protein was detected by UV absorbance at 280 nm. As a control, BL21 cells transformed with an empty pMAL-[…] vector were assayed. The purified protein was stored at -80° C. mixed with 10% glycerol. The reaction system was according to Hugueney et al. with some modification (Hugueney, P., et al., A novel cation-dependent O-methyltransferase involved in anthocyanin methylation in grapevine. Plant Physiology, 2009. 150(4): p. 2057-2070.). Purified recombinant FOMT (2 μg) was assayed in a final volume of 200 μL containing 200 μM SAM, 1 mM MgCl2, 14 mM β-mercaptoethanol, 100 mM Tris, pH 7.5, and 20 μM flavonoid substrates. Incubation was performed at 35° C. and stopped with 200 μL methanol containing 2% formic acid. […] Reaction product was analyzed by a Dionex HPLC system (Sunnyvale, Calif.), equipped with a P680 HPLC pump, an UltiMate 3000 autosampler, a TCC-100 thermostated column compartment and a Dionex PDA100 photodiode array detector. The analytical column was C18 column of ODS 80Ts QA (150 mm×4.6 mm, 5 μm i.d., Tosoh, Tokyo) protected with a C18 guard cartridge (Shanghai ANPEL Scientific Instrument, Shanghai). The following solvent and gradient were used: A, 10% aqueous formic acid; B, methanol; constant gradient from 10 to 36% B within 15 min and back to 10% B in 3 min; the flow rate was 0.8 mL min^-1; Column temperature was maintained at 35° C.; 20 μL of analyte was injected. Chromatograms were obtained at 525 nm for anthocyanins and 350 nm for other flavonoids, and photodiode array spectra were recorded from 200 to 800 nm. Km and Vmax values were calculated from Lineweaver-Burk plots.

The subject of assay [2] is PsFOMT. Described as above. Format: biochemical, Paeonia suffruticosa cv. 'Gunpohden'. Set-up: key: —: no product detected. The settings on record: purified recombinant PsFOMT, 200 μM SAM, 1 mM MgCl2, pH 7.5, 35° C., substrate 5 to 200 μM, means (SE) of triplicate assays.
The test system of another assay is PtFOMT. The experiment in a line: In vitro enzymatic activity of recombinant PtFOMT with potential substrates. The note with it: purified recombinant PtFOMT; means ± SE of triplicate assays. Format: biochemical, Paeonia tenuifolia. An excerpt:
Full length FOMTs were amplified by primers SEQ No.7 & 8 in which restriction enzyme NdeI and BamHI site were introduced to the 5′-end and 3′-end, respectively. The DNA fragment of interest was ligated into the pEASY-T3 vector, and then the recombinant plasmid was transducted into DH5a. The FOMT cDNAs were sequenced to verify that no mutation occurred. The recombinant plasmid was isolated and digested with Ndel and BamHI. Subsequently, the fragment was ligated to the NdeI and BamHI excised expression vector pMAL-c5X with a MBP tag to yield pMAL-PsFOMT and pMAL-PtFOMT (FIG. 3). The correct construction tested by sequencing was introduced into E. coli strain BL21. E. coli harboring pMAL-PsFOMT and pMAL-PtFOMT were cultivated in 2 mL LB liquid medium containing glucose, supplemented by 100 μg/mL ampicillin until OD600 reached 0.4-0.5. After addition of isopropyl β-D-thiogalactopyranoside (IPTG) to a final concentration of 0.1 mM, the cells were further cultured at 16° C. for 20 h. Harvest the cells by centrifugation and discard the supernatant. The cells were resuspended in column buffer (20 mM Tris-HCl, 200 mM NaCl 1 mM EDTA, 10 mM β-mercaptoethanol, pH 7.4), and disrupted by sonication in an ice-water bath (Lan, T., et al., Extensive functional diversification of the Populus glutathione S-transferase supergene family. Plant Cell, 2009. 21(12): p. 3749-3766.). In each case, the homogenate was then subjected to centrifugation at 10,000 g for 10 min at 4° C. The resultant particulate material and a small portion of the supernatant were analyzed by SDS-PAGE. The rest of the supernatant was loaded onto an amylose resin column (NEB) that had been pre-equilibrated with column buffer. The overexpressed fusion protein bound to the column was eluted with column buffer plus 10 mM maltose. The concentration of purified fusion protein was detected by UV absorbance at 280 nm. As a control, BL21 cells transformed with an empty pMAL-c5X vector were assayed. The purified protein was stored at −80° C. mixed with 10% glycerol.
The reaction system was according to Hugueney et al. with some modification (Hugueney, P., et al., A novel cation-dependent O-methyltransferase involved in anthocyanin methylation in grapevine. Plant Physiology, 2009. 150(4): p. 2057-2070.). Purified recombinant FOMT (2 μg) was assayed in a final volume of 200 μL containing 200 μM SAM, 1 mM MgCl2, 14 mM β-mercaptoethanol, 100 mM Tris, pH 7.5, and 20 μM flavonoid substrates. Incubation was performed at 35° C. and stopped with 200 μL methanol containing 2% formic acid. For enzyme kinetic studies, purified FOMT was incubated based on the above condition with the exception that a range of substrate concentrations from 5 to 200 μM were used for Km determination. Reaction product was analyzed by a Dionex HPLC system (Sunnyvale, Calif.), equipped with a P680 HPLC pump, an UltiMate 3000 autosampler, a TCC-100 thermostated column compartment and a Dionex PDA100 photodiode array detector. The analytical column was C18 column of ODS 80Ts QA (150 mm×4.6 mm, 5 μm i.d., Tosoh, Tokyo) protected with a C18 guard cartridge (Shanghai ANPEL Scientific Instrument, Shanghai). […] Chromatograms were obtained at 525 nm for anthocyanins and 350 nm for other flavonoids, and photodiode array spectra were recorded from 200 to 800 nm. Km and Vmax values were calculated from Lineweaver-Burk plots.

Structures are written as SMILES. Like-named read-outs stand apart in the source and are kept apart here.

A word on the Km: it is the concentration of substrate that gives half-maximal velocity. In the case of `O=C(O)/C=C/c1ccc(O)c(O)c1` [Caffeic acid], in the assay with PsFOMT [1], the “Kcat × 10” value was “—”, the Kcat/Km entry is given as “—”, the “Specific Activity” value is listed as “—” and the Vmax result is given as “—”. Further, the Km result with PsFOMT [2] is reported as “—”.
Take `OC[C@H]1O[C@@H](Oc2cc3c(O[C@@H]4O[C@H](CO)[C@@H](O)[C@H](O)[C@H]4O)cc(O)cc3[o+]c2-c2ccc(O)c(O)c2)[C@H](O)[C@@H](O)[C@@H]1O` [Cyanidin 3,5-di-O-glucoside]: in the assay on PsFOMT [1], the “catalytical efficiency of PsFOMT fusion protein for substrate” value is “high catalytical efficiency”, the “Kcat × 10” value was 127.70 (1.05) s^−1, the “Specific Activity” value is 1788 (15) pkat mg^−1 and the Vmax is 17.88 (0.25) nM s^−1. For the same molecule, the Km in the assay on PsFOMT [2] (read-out: Km) worked out at 1.06 µM. Besides, the Specific Activity in the assay on PtFOMT is 29.60 ± 3.47 pkat mg^−1.
`OC[C@H]1O[C@@H](Oc2cc3c(O)cc(O)cc3[o+]c2-c2ccc(O)c(O)c2)[C@H](O)[C@@H](O)[C@H]1O` [Cyanidin 3-O-galactoside]: in the assay with PsFOMT [1], the “methylation of substrate by PsFOMT” value is recorded as “can be methylated”, the “Kcat × 10” value is listed as 217.90 (36.48) s^−1, the “Specific Activity” value is given as 3138 (525) pkat mg^−1 and the Vmax is given as 39.22 (6.57) nM s^−1. For the same molecule, the Km with PsFOMT [2] (read-out: Km) turned out to be 31.7 µM.
`OC[C@H]1O[C@@H](Oc2cc3c(O)cc(O)cc3[o+]c2-c2ccc(O)c(O)c2)[C@H](O)[C@@H](O)[C@@H]1O` [Cyanidin 3-O-glucoside]: in the assay with PsFOMT [1], the “catalytical efficiency of PsFOMT fusion protein for substrate” value is listed as “high catalytical efficiency”, the “Kcat × 10” value is recorded as 161.99 (0.73) s^−1, the “Specific Activity” value is listed as 2314 (11) pkat mg^−1 and the Vmax is on record as 11.57 (0.05) nM s^−1. In addition, the Km in the assay on PsFOMT [2] (read-out: Km) is 1.76 µM. In addition, in the assay with PtFOMT, the Specific Activity was determined as 37.98 ± 1.05 pkat mg^−1.
Turning to `OC[C@H]1O[C@@H](Oc2cc3c(O)cc(O)cc3[o+]c2-c2cc(O)c(O)c(O)c2)[C@H](O)[C@@H](O)[C@@H]1O` [Delphinidin 3-O-glucoside], in the assay with PsFOMT [1], the “methylation of substrate by PsFOMT” value was “sequentially methylate 3′- and 5′-OH at B ring”; the “Kcat × 10” value was 94.72 (1.49) s^−1; the “Specific Activity” value is recorded as 1364 (21) pkat mg^−1; the Vmax was 17.05 (0.27) nM s^−1. For the same molecule, the Km with PsFOMT [2] (read-out: Km) was found to be 4.11 µM. For the same molecule, the Specific Activity in the assay on PtFOMT is 21.50 ± 0.10 pkat mg^−1.
For `O=c1c(O)c(-c2ccc(O)cc2)oc2cc(O)cc(O)c12` [Kaempferol], in the assay with PsFOMT [1], the “Kcat × 10” value is given as “—”, the Kcat/Km entry is reported as “—”, the “Specific Activity” value was “—” and the Vmax entry is reported as “—”. Further, in the assay on PsFOMT [2], the Km result was “—”.
In the case of `O=c1cc(-c2ccc(O)c(O)c2)oc2cc(O)cc(O)c12` [Luteolin], in the assay on PsFOMT [1], the “Kcat × 10” value was “—”, the Kcat/Km result is reported as “—”, the “Specific Activity” value is on record as “—” and the Vmax result is on record as “—”. In the assay on PsFOMT [2], the Km result is listed as “—”.
As for `O=C1C[C@@H](c2ccc(O)cc2)Oc2cc(O)cc(O)c21` [Naringenin], in the assay with PsFOMT [1], the “Kcat × 10” value was “—”, the Kcat/Km entry is “—”, the “Specific Activity” value is “—” and the Vmax result was “—”. For the same molecule, in the assay with PsFOMT [2], the Km entry is reported as “—”.
Regarding `OC[C@H]1O[C@@H](Oc2cc3c(O)cc(O)cc3[o+]c2-c2ccc(O)cc2)[C@H](O)[C@@H](O)[C@@H]1O` [Pelargonidin 3-O-glucoside], in the assay with PsFOMT [1], the “Kcat × 10” value was “—”, the Kcat/Km result is recorded as “—”, the “Specific Activity” value is reported as “—” and the Vmax entry is listed as “—”. The Km entry in the assay on PsFOMT [2] is reported as “—”.
Consider `C[C@@H]1O[C@@H](OC[C@H]2O[C@@H](Oc3c(-c4ccc(O)c(O)c4)oc4cc(O)cc(O)c4c3=O)[C@H](O)[C@@H](O)[C@@H]2O)[C@H](O)[C@H](O)[C@H]1O` [Quercetin 3-O-rutinoside], for which, in the assay on PsFOMT [1], the “methylation of substrate by PsFOMT” value is “can be methylated”, the “Kcat × 10” value is on record as 192.11 (4.41) s^−1, the “Specific Activity” value is 2744 (135) pkat mg^−1 and the Vmax is recorded as 27.44 (1.63) nM s^−1. Besides, the Km in the assay on PsFOMT [2] (read-out: Km) amounted to 12.3 µM. Also, the Specific Activity with PtFOMT turned out to be 30.20 ± 0.24 pkat mg^−1.
As to `O=c1c(O)c(-c2ccc(O)c(O)c2)oc2cc(O)cc(O)c12` [Quercetin], in the assay on PsFOMT [1], the “methylation of substrate by PsFOMT” value is listed as “can be methylated”, the “Kcat × 10” value is 9.83 (0.12) s^−1, the “Specific Activity” value was 142 (2) pkat mg^−1 and the Vmax is 1.77 (0.02) nM s^−1. In the assay with PsFOMT [2] (read-out: Km), the Km was 4.33 µM. For the same molecule, the Specific Activity in the assay with PtFOMT was 17.58 ± 0.57 pkat mg^−1.
